Laboratory results taken from article PMC9090415, “Discovery of small molecule inhibitors of Plasmodium falciparum apicoplast DNA polymerase” (Journal of Enzyme Inhibition and Medicinal Chemistry, 2022).

Molecular target: P. falciparum apicoplast DNA polymerase (Pf-apPOL) (Plasmodium falciparum, UniProt Q8ILY1)
Assay: Fluorescence-based high-throughput DNA polymerase assay (molecular beacon), primary screen and dose-response;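 on % inhibition ApPOL 90': test concentration in µM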;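 on % inhibition apPOL 180': test concentration in µM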
Assay type: biochemical
Conditions: for DNA Pol: 90 min, 10 µM; for IC50: supplemental file 2, sheet IC50 nontoxic compounds, Pf-apPOL
Procedure, shortened: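 Single-point screening used 10 µM compound with 20 nM polymerase, 20 nM hairpin substrate and 6 µM dNTPs for 90 min at 25 °C. Confirmatory titrations (2.5–80 µM) followed fluorescence at three times, and IC50 was derived from a fit including a cooperativity term n.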

Chain of P. falciparum apicoplast DNA polymerase (Pf-apPOL) (Q8ILY1 entry or part of it): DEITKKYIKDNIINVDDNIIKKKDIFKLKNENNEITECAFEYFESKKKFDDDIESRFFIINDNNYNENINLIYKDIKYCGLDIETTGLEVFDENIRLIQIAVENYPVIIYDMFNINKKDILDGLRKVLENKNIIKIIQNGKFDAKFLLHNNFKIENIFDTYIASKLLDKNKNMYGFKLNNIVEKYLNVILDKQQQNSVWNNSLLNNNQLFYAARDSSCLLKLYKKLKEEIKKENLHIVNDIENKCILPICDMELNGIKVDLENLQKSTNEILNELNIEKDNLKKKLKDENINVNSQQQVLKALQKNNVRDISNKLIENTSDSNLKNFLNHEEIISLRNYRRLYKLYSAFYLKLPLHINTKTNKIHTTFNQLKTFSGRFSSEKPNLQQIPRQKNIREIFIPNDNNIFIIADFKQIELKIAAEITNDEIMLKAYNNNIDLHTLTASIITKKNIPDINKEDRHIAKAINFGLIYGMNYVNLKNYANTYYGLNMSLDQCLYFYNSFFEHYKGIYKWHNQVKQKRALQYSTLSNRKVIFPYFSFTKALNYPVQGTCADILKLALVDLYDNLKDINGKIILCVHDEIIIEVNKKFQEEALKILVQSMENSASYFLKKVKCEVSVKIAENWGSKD

## COc1ccc(C)cc1NC(=O)Cn1ccc2c(=O)[nH]ccc21 [Molecule 15, COc1ccc(cc1NC(=O)Cn1ccc2c1cc[nH]c2=O)C]
DRC-1, concentration 2.5
  % inhibition Apo pol 10': 1.7584%
  % inhibition Apol 90': -2.786%
  % inhibition apPOL 180': -5.413%
DRC-1, concentration 5
  % inhibition Apo pol 10': 31.9729%
  % inhibition Apol 90': 18.8368%
  % inhibition apPOL 180': 6.847%
DRC-1, concentration 10
  % inhibition Apo pol 10': 59.9251%
  % inhibition Apol 90': 46.9508%
  % inhibition apPOL 180': 30.4146%
DRC-1, concentration 20
  % inhibition Apo pol 10': 81.9832%
  % inhibition Apol 90': 77.5716%
  % inhibition apPOL 180': 67.1672%
DRC-1, concentration 40
  % inhibition Apo pol 10': 82.3162%
  % inhibition Apol 90': 84.7552%
  % inhibition apPOL 180': 81.3984%
DRC-1, concentration 80
  % inhibition Apo pol 10': 74.4719%
  % inhibition Apol 90': 84.8173%
  % inhibition apPOL 180': 86.595%
DRC-2, concentration 2.5
  % inhibition Apo pol 5': 1.82%
  % inhibition Apol 40': 0.779%
  % inhibition ApPOL 90': -0.827%
  % inhibition apPOL 180': -8%
DRC-2, concentration 5
  % inhibition Apo pol 5': 24%
  % inhibition Apol 40': 28%
  % inhibition ApPOL 90': 24%
  % inhibition apPOL 180': 12%
DRC-2, concentration 10
  % inhibition Apo pol 5': 47%
  % inhibition Apol 40': 63%
  % inhibition ApPOL 90': 64%
  % inhibition apPOL 180': 58%
DRC-2, concentration 20
  % inhibition Apo pol 5': 44%
  % inhibition Apol 40': 65%
  % inhibition ApPOL 90': 67%
  % inhibition apPOL 180': 66%
DRC-2, concentration 40
  % inhibition Apo pol 5': 34%
  % inhibition Apol 40': 60%
  % inhibition ApPOL 90': 66%
  % inhibition apPOL 180': 72%
DRC-2, concentration 80
  % inhibition Apo pol 5': 8%
  % inhibition Apol 40': 46%
  % inhibition ApPOL 90': 55%
  % inhibition apPOL 180': 64%
conc. 5, DRC-2
  % inhibition Apo pol 5': 24%
  % inhibition ApPOL 90': 24%
conc. 10, DRC-2
  % inhibition ApPOL 90': 64%
conc. 20, DRC-2
  % inhibition apPOL 180': 66%
conc. 40, DRC-2
  % inhibition ApPOL 90': 66%
conc. 80, DRC-2
  % inhibition apPOL 180': 64%
Primary screen value by plate and well
  DNA Pol: 73
Primary screen value of the 186 hits, unit not given
  DNA Pol: 73

## COc1ccc(/C=C/c2cc(C(=O)O)c3ccccc3n2)cc1 [Molecule 5]
  IC50: 3.86 µM

## CCN1C(=O)C(=Cc2cccc(OC)c2O)SC1=S [Molecule 78]
  IC50: 35 µM

## C=CC1=C(C)c2cc3[nH]c(cc4nc(cc5[nH]c(cc1n2)c(C)c5CCC(=O)O)C(CCC(=O)O)=C4C)c(C)c3C=C [Molecule 91, C=CC1=C(C)/C/2=C/c3[nH]c(c(c3C=C)C)/C=C/3\N=C(/C=c/4\[nH]/c(=C\C1=N2)/c(C)c4CCC(=O)O)C(=C3C)CCC(=O)O]
'DNA Pol' of the 186 hits list (screen value)
  DNA Pol: 102
DRC-1, conc 2.5
  % inhibition Apo pol 10': 61.8295%
  % inhibition Apol 90': 48.9007%
  % inhibition apPOL 180': 35.65%
DRC-1, conc 5
  % inhibition Apo pol 10': 90.2247%
  % inhibition Apol 90': 79.3077%
  % inhibition apPOL 180': 71.3476%
DRC-1, conc 10
  % inhibition Apo pol 10': 94.5739%
  % inhibition Apol 90': 94.695%
  % inhibition apPOL 180': 94.4178%
DRC-1, conc 20
  % inhibition Apo pol 10': 93.6963%
  % inhibition Apol 90': 95.5429%
  % inhibition apPOL 180': 96.2534%
DRC-1, conc 40
  % inhibition Apo pol 10': 92.3128%
  % inhibition Apol 90': 94.7622%
  % inhibition apPOL 180': 95.7686%
DRC-1, conc 80
  % inhibition Apo pol 10': 90.9627%
  % inhibition Apol 90': 94.048%
  % inhibition apPOL 180': 95.2166%
DRC-2, conc 2.5
  % inhibition Apo pol 5': 48%
  % inhibition Apol 40': 44%
  % inhibition ApPOL 90': 40%
  % inhibition apPOL 180': 25%
DRC-2, conc 5
  % inhibition Apo pol 5': 50%
  % inhibition Apol 40': 57%
  % inhibition ApPOL 90': 56%
  % inhibition apPOL 180': 49%
DRC-2, conc 10
  % inhibition Apo pol 5': 53%
  % inhibition Apol 40': 70%
  % inhibition ApPOL 90': 74%
  % inhibition apPOL 180': 76%
DRC-2, conc 20
  % inhibition Apo pol 5': 49%
  % inhibition Apol 40': 70%
  % inhibition ApPOL 90': 76%
  % inhibition apPOL 180': 80%
DRC-2, conc 40
  % inhibition Apo pol 5': 49%
  % inhibition Apol 40': 69%
  % inhibition ApPOL 90': 75%
  % inhibition apPOL 180': 80%
DRC-2, conc 80
  % inhibition Apo pol 5': 48%
  % inhibition Apol 40': 69%
  % inhibition ApPOL 90': 75%
  % inhibition apPOL 180': 79%
DRC-2, concentration 2.5
  % inhibition Apo pol 5': 48%
DRC-2, concentration 20
  % inhibition Apo pol 5': 49%
  % inhibition Apol 40': 70%
  % inhibition ApPOL 90': 76%
  % inhibition apPOL 180': 80%
DRC-2, concentration 40
  % inhibition Apo pol 5': 49%
  % inhibition Apol 40': 69%
  % inhibition ApPOL 90': 75%
  % inhibition apPOL 180': 80%
DRC-2, concentration 80
  % inhibition Apo pol 5': 48%
  % inhibition Apol 40': 69%
  % inhibition ApPOL 90': 75%
DRC-2, concentration 10
  % inhibition Apol 40': 70%
  % inhibition apPOL 180': 76%
DRC-2, concentration 5
  % inhibition apPOL 180': 49%
Primary screen value, "DNA Pol"
  DNA Pol: 102
